Test: Test 1: Oxidation of 2,2,6,6-tetramethylpiperidine (TEMP), EPR detection of TEMPO
Conditions: porphyrin compound at 0.5 μM, 50 mM TEMP, phosphate buffer pH 7.4, oxygen-saturated, daylight, 1 hour
Protocol: The oxidizing agent used in this test is dissolved oxygen. A solution comprising a phosphate buffer (pH 7.4), 50 mM of the compound 2,2,6,6-tetramethylpiperidine (TEMP) and a porphyrin compound at 0.5 μM is prepared. The solution is saturated with oxygen. The solution is placed in daylight. After 1 hour, electron paramagnetic resonance (EPR) spectrometry of the oxidized form of the compound 2,2,6,6-tetramethylpiperidine (TEMP), which corresponds to the compound […], known as TEMPO, is performed. In accordance with the scientific publication Lion et al., 1976; Moan and Wold, 1979, the presence of the compound in TEMPO form is indicative of the oxidation produced by oxygen on the compound 2,2,6,6-tetramethylpiperidine and thus of the catalytic effect of the porphyrin compound. […] With a porphyrin compound according to the invention, the appearance of the TEMPO compound is observed after 1 hour of placing in contact.

For copper chlorophyllin, which “catalytic oxidation activity: formation of the TEMPO compound from TEMP (test 1)” value is on record?
Its value is “does not lead to the formation of the TEMPO compound”.
